Test results from paper PMC5218480 (PLoS ONE, 2017).

Tested on: MV-4-11 cells
Assay: Gene expression microarray analysis (Affymetrix PrimeView) and GSEA
Assay type: cell-based, human
Set-up: RFU PODN (11730768_x_at) / Fold change /veh PODN (11730768_x_at) / RFU LINC00158 (11744669_a_at) / Fold change /veh LINC00158 (11744669_a_at) / RFU DUSP10 (11751237_a_at) / Fold change /veh DUSP10 (11751237_a_at) / RFU ID3 (11757404_x_at) / Fold change /veh ID3 (11757404_x_at) / RFU PLEKHG5 (11737974_s_at) / Fold change /veh PLEKHG5 (11737974_s_at) / RFU LRRC4B (11730491_at) / Fold change /veh LRRC4B (11730491_at) / RFU GIMAP4 (11747438_a_at) / Fold change /veh GIMAP4 (11747438_a_at) / RFU KRT8 (11758183_x_at) / Fold change /veh KRT8 (11758183_x_at) / RFU CNN1 (11734310_a_at) / Fold change /veh CNN1 (11734310_a_at) / RFU VPS37D (11726825_at) / Fold change /veh VPS37D (11726825_at) / RFU C10orf10 (11716522_x_at) / Fold change /veh C10orf10 (11716522_x_at) / RFU KIR2DL2 /// KIR2DL4 /// KIR2DL5A /// KIR2DL5B /// KIR2DS1 /// KIR2DS2 /// KIR2DS3 /// KIR2DS4 /// KIR3DL3 /// KIR3DL3 /// KIR3DS1 (11738374_at) / Fold change /veh KIR2DL2 /// KIR2DL4 /// KIR2DL5A /// KIR2DL5B /// KIR2DS1 /// KIR2DS2 /// KIR2DS3 /// KIR2DS4 /// KIR3DL3 /// KIR3DL3 /// KIR3DS1 (11738374_at) / RFU C1QL1 (11718748_at) / Fold change /veh C1QL1 (11718748_at) / RFU TMPRSS4 (11747572_a_at) / Fold change /veh TMPRSS4 (11747572_a_at) / RFU HAMP (11756126_x_at) / Fold change /veh HAMP (11756126_x_at) / RFU RNFT2 (11725882_a_at) / Fold change /veh RNFT2 (11725882_a_at) / RFU NR4A2 (11747474_a_at) / Fold change /veh NR4A2 (11747474_a_at) / RFU ABCC12 (11746883_a_at) / Fold change /veh ABCC12 (11746883_a_at) / RFU TMEM136 (11760407_x_at) / Fold change /veh TMEM136 (11760407_x_at) / RFU CLDN22 /// WWC2 (11732394_at) / Fold change /veh CLDN22 /// WWC2 (11732394_at) / RFU HLA-DPB1 (11760878_x_at) / Fold change /veh HLA-DPB1 (11760878_x_at) / RFU SPINT1 (11716480_a_at) / Fold change /veh SPINT1 (11716480_a_at) / RFU GAP43 (11754022_s_at) / Fold change /veh GAP43 (11754022_s_at) / RFU A4GNT (11735810_at) / Fold change /veh A4GNT (11735810_at) / RFU PRB3 (11715151_x_at) / Fold change /veh PRB3 (11715151_x_at) / RFU TUBB4B (11761932_at) / Fold change /veh TUBB4B (11761932_at) / RFU CAPN14 (11732068_a_at) / Fold change /veh CAPN14 (11732068_a_at) / RFU TMCC2 (11721928_a_at) / Fold change /veh TMCC2 (11721928_a_at) / RFU IRGQ (11745062_a_at) / Fold change /veh IRGQ (11745062_a_at) / RFU FAM174B (11720279_a_at) / Fold change /veh FAM174B (11720279_a_at) / RFU TMPRSS4 (11748680_a_at) / Fold change /veh TMPRSS4 (11748680_a_at) / RFU FAM212B (11763350_a_at) / Fold change /veh FAM212B (11763350_a_at) / RFU PLEKHG5 (11743358_a_at) / Fold change /veh PLEKHG5 (11743358_a_at) / RFU ZSCAN30 (11745921_a_at) / Fold change /veh ZSCAN30 (11745921_a_at) / RFU CMKLR1 (11741424_a_at) / Fold change /veh CMKLR1 (11741424_a_at) / RFU LOC101060620 /// MAPK8IP1 (11723275_at) / Fold change /veh LOC101060620 /// MAPK8IP1 (11723275_at) / RFU SPTSSB (11747773_x_at) / Fold change /veh SPTSSB (11747773_x_at) / RFU PRSS12 (11739890_at) / Fold change /veh PRSS12 (11739890_at) / RFU BIN1 (11741810_x_at) / Fold change /veh BIN1 (11741810_x_at) / RFU WNT11 (11732464_a_at) / Fold change /veh WNT11 (11732464_a_at) / RFU C10orf10 (11716521_a_at) / Fold change /veh C10orf10 (11716521_a_at) / RFU C5orf56 (11738089_at) / Fold change /veh C5orf56 (11738089_at) / RFU CYB561 (11721691_x_at) / Fold change /veh CYB561 (11721691_x_at) / RFU ANKRD19P (11752326_a_at) / Fold change /veh ANKRD19P (11752326_a_at) / RFU OR2T12 /// OR2T33 /// OR2T8 (11738714_s_at) / Fold change /veh OR2T12 /// OR2T33 /// OR2T8 (11738714_s_at) / RFU VCAN (11748164_a_at) / Fold change /veh VCAN (11748164_a_at) / RFU JSRP1 (11732532_at) / Fold change /veh JSRP1 (11732532_at) / RFU KRTAP10-11 (11738290_x_at) / Fold change /veh KRTAP10-11 (11738290_x_at) / RFU MYO3A (11730013_a_at) / Fold change /veh MYO3A (11730013_a_at) / RFU EBF3 (11725865_a_at) / Fold change /veh EBF3 (11725865_a_at) / RFU CAMK2N1 (11719241_x_at) / Fold change /veh CAMK2N1 (11719241_x_at) / RFU C5orf56 (11738088_a_at) / Fold change /veh C5orf56 (11738088_a_at) / RFU OLFML3 (11715873_a_at) / Fold change /veh OLFML3 (11715873_a_at) / RFU LOC100653217 /// NTM (11731650_a_at) / Fold change /veh LOC100653217 /// NTM (11731650_a_at) / RFU MAPK11 (11762145_a_at) / Fold change /veh MAPK11 (11762145_a_at) / RFU FIZ1 (11724087_x_at) / Fold change /veh FIZ1 (11724087_x_at) / RFU OASL (11726364_x_at) / Fold change /veh OASL (11726364_x_at) / RFU SOX15 (11748057_x_at) / Fold change /veh SOX15 (11748057_x_at) / RFU CD79A (11719716_a_at) / Fold change /veh CD79A (11719716_a_at) / RFU HIST1H1D (11736915_at) / Fold change /veh HIST1H1D (11736915_at) / RFU CASKIN2 (11723855_a_at) / Fold change /veh CASKIN2 (11723855_a_at) / RFU LOC730098 (11760151_x_at) / Fold change /veh LOC730098 (11760151_x_at) / RFU OR4N2 (11742367_at) / Fold change /veh OR4N2 (11742367_at) / RFU PRRT2 (11749266_a_at) / Fold change /veh PRRT2 (11749266_a_at) / RFU SNX32 (11753110_a_at) / Fold change /veh SNX32 (11753110_a_at) / RFU CDHR5 (11726645_a_at) / Fold change /veh CDHR5 (11726645_a_at) / RFU RCAN1 (11760418_a_at) / Fold change /veh RCAN1 (11760418_a_at) / RFU FAM167A (11723789_a_at) / Fold change /veh FAM167A (11723789_a_at) / RFU FAM26E (11764081_at) / Fold change /veh FAM26E (11764081_at) / RFU ISYNA1 (11749810_s_at) / Fold change /veh ISYNA1 (11749810_s_at) / RFU ACY1 (11761880_at) / Fold change /veh ACY1 (11761880_at) / RFU 11764098_at / Fold change /veh 11764098_at / RFU SAMD14 (11745864_x_at) / Fold change /veh SAMD14 (11745864_x_at) / RFU NPB (11741838_a_at) / Fold change /veh NPB (11741838_a_at) / RFU TMPRSS6 (11731388_a_at) / Fold change /veh TMPRSS6 (11731388_a_at) / RFU KRTAP10-2 (11738614_at) / Fold change /veh KRTAP10-2 (11738614_at) / RFU ARHGAP8 /// PRR5-ARHGAP8 (11727945_x_at) / Fold change /veh ARHGAP8 /// PRR5-ARHGAP8 (11727945_x_at) / RFU KRTAP5-7 /// NADSYN1 (11734609_at) / Fold change /veh KRTAP5-7 /// NADSYN1 (11734609_at) / RFU RASL12 (11751679_a_at) / Fold change /veh RASL12 (11751679_a_at) / RFU CDKN2B (11736163_a_at) / Fold change /veh CDKN2B (11736163_a_at) / RFU PRF1 (11729649_at) / Fold change /veh PRF1 (11729649_at) / RFU, ZNF638 /// ZNF638-IT1 / Fold change vs veh, ZNF638 /// ZNF638-IT1 / RFU, PANK3 / Fold change vs veh, PANK3 / RFU, SH3YL1 / Fold change vs veh, SH3YL1 / RFU, ZEB2 / Fold change vs veh, ZEB2 / RFU, NRIP1 / Fold change vs veh, NRIP1 / RFU, PTTG1IP / Fold change vs veh, PTTG1IP / RFU, CAPN2 / Fold change vs veh, CAPN2 / RFU, MED14 / Fold change vs veh, MED14 / RFU, SNORA58 / Fold change vs veh, SNORA58 / RFU, C1orf63 / Fold change vs veh, C1orf63 / RFU, LRRFIP1 / Fold change vs veh, LRRFIP1 / RFU, NDUFAF7 / Fold change vs veh, NDUFAF7 / RFU, SLC12A2 / Fold change vs veh, SLC12A2 / RFU, IBTK / Fold change vs veh, IBTK / RFU, ESF1 / Fold change vs veh, ESF1 / Fold change vs veh, TMEM50B / RFU, TAOK1 / Fold change vs veh, TAOK1 / RFU, ACBD3 / Fold change vs veh, ACBD3 / RFU, TMA16 / Fold change vs veh, TMA16 / RFU, RWDD3 / Fold change vs veh, RWDD3 / RFU, BCAT1 / Fold change vs veh, BCAT1 / RFU, EDEM3 / Fold change vs veh, EDEM3 / RFU, TMEM33 / Fold change vs veh, TMEM33 / RFU, WDR75 / Fold change vs veh, WDR75 / RFU, AHCTF1 / Fold change vs veh, AHCTF1 / RFU, TFRC / Fold change vs veh, TFRC / RFU, ZDHHC17 / Fold change vs veh, ZDHHC17 / RFU, NOM1 / Fold change vs veh, NOM1 / RFU, ARL8B / Fold change vs veh, ARL8B / RFU, ZBTB11 / Fold change vs veh, ZBTB11 / RFU, TAMM41 / Fold change vs veh, TAMM41 / RFU, KIAA1704 /// LOC100996395 / Fold change vs veh, KIAA1704 /// LOC100996395 / RFU, ING1 / Fold change vs veh, ING1 / RFU, TRMT61B / Fold change vs veh, TRMT61B / RFU, FUBP3 / Fold change vs veh, FUBP3 / RFU, TP53 / Fold change vs veh, TP53 / RFU, TNKS2 / Fold change vs veh, TNKS2 / RFU, ZFP14 / Fold change vs veh, ZFP14 / RFU, ACTR2 / Fold change vs veh, ACTR2 / RFU, PPP3R1 / Fold change vs veh, PPP3R1 / RFU, PIK3R1 / Fold change vs veh, PIK3R1 / RFU, HNRNPA1 / Fold change vs veh, HNRNPA1 / RFU, RNF170 / Fold change vs veh, RNF170 / RFU, ZNF28 / Fold change vs veh, ZNF28 / RFU, RNGTT / Fold change vs veh, RNGTT / RFU, OGT / Fold change vs veh, OGT / RFU, BRD1 / Fold change vs veh, BRD1 / RFU, MARS / Fold change vs veh, MARS / RFU, ZNF655 / Fold change vs veh, ZNF655 / RFU, FAHD1 / Fold change vs veh, FAHD1 / RFU, BDP1 / Fold change vs veh, BDP1 / RFU, LRRCC1 / Fold change vs veh, LRRCC1 / RFU, ARID1A / Fold change vs veh, ARID1A / RFU, ZNF146 / Fold change vs veh, ZNF146 / RFU, ZNF330 / Fold change vs veh, ZNF330 / RFU, GPN3 / Fold change vs veh, GPN3 / RFU, C9orf123 / Fold change vs veh, C9orf123 / RFU, N4BP2L2 / Fold change vs veh, N4BP2L2 / RFU, ARFIP1 / Fold change vs veh, ARFIP1 / RFU, FAM179B / Fold change vs veh, FAM179B / RFU, BCL10 / Fold change vs veh, BCL10 / RFU, UHRF1BP1L / Fold change vs veh, UHRF1BP1L / RFU, BET1 / Fold change vs veh, BET1 / RFU, CNOT2 / Fold change vs veh, CNOT2 / RFU, ZNF268 / Fold change vs veh, ZNF268 / Fold change vs veh, ZNF507 / RFU, DGCR2 / Fold change vs veh, DGCR2 / RFU, WDSUB1 / Fold change vs veh, WDSUB1 / Fold change vs veh, HSP90B1 /// MIR3652 / RFU, ADSS / Fold change vs veh, ADSS / RFU, GK / Fold change vs veh, GK / RFU, ZNF148 / Fold change vs veh, ZNF148 / RFU, TAF9 / Fold change vs veh, TAF9 / RFU, SLC1A5 / Fold change vs veh, SLC1A5 / RFU, SLMO2 / Fold change vs veh, SLMO2 / RFU, ABCC4 / Fold change vs veh, ABCC4 / RFU, LOC101060439 /// RAP1B / Fold change vs veh, LOC101060439 /// RAP1B / RFU, RFX7 / Fold change vs veh, RFX7 / RFU, GTPBP10 / Fold change vs veh, GTPBP10 / RFU, CNEP1R1 / Fold change vs veh, CNEP1R1 / RFU, BIVM-ERCC5 /// ERCC5 / Fold change vs veh, BIVM-ERCC5 /// ERCC5 / RFU, ILF3 / Fold change vs veh, ILF3 / RFU 11762660_at / Fold change /veh 11762660_at / RFU VCAN (11757783_s_at) / Fold change /veh VCAN (11757783_s_at) / RFU DDX43 (11728927_at) / Fold change /veh DDX43 (11728927_at) / RFU KRT8 (11758188_x_at) / Fold change /veh KRT8 (11758188_x_at) / RFU NKD1 (11759106_at) / Fold change /veh NKD1 (11759106_at) / RFU SRD5A1 (11742802_a_at) / Fold change /veh SRD5A1 (11742802_a_at) / RFU TPSAB1 /// TPSB2 (11721975_s_at) / Fold change /veh TPSAB1 /// TPSB2 (11721975_s_at) / RFU GSTM3 (11746129_a_at) / Fold change /veh GSTM3 (11746129_a_at) / RFU IL23R (11737362_x_at) / Fold change /veh IL23R (11737362_x_at) / RFU TMEM51 (11727254_a_at) / Fold change /veh TMEM51 (11727254_a_at) / RFU PIWIL2 (11732686_x_at) / Fold change /veh PIWIL2 (11732686_x_at) / RFU ORM1 (11744905_x_at) / Fold change /veh ORM1 (11744905_x_at) / RFU CCDC152 (11743942_at) / Fold change /veh CCDC152 (11743942_at) / RFU ECM1 (11717891_a_at) / Fold change /veh ECM1 (11717891_a_at) / RFU IL23R (11748794_a_at) / Fold change /veh IL23R (11748794_a_at) / RFU TNFAIP8L3 (11732012_x_at) / Fold change /veh TNFAIP8L3 (11732012_x_at) / RFU MBOAT4 (11741988_at) / Fold change /veh MBOAT4 (11741988_at) / RFU 11764193_at / Fold change /veh 11764193_at / RFU TMEM53 (11763286_at) / Fold change /veh TMEM53 (11763286_at) / RFU MAGEB2 (11727129_at) / Fold change /veh MAGEB2 (11727129_at) / RFU TMEM200A (11744735_a_at) / Fold change /veh TMEM200A (11744735_a_at) / RFU CCDC152 (11751479_a_at) / Fold change /veh CCDC152 (11751479_a_at) / RFU FAM211A (11726209_a_at) / Fold change /veh FAM211A (11726209_a_at) / RFU RGS16 (11746705_a_at) / Fold change /veh RGS16 (11746705_a_at) / RFU VCAN (11755009_s_at) / Fold change /veh VCAN (11755009_s_at) / RFU RHOB (11743442_s_at) / Fold change /veh RHOB (11743442_s_at) / RFU RGS16 (11720943_a_at) / Fold change /veh RGS16 (11720943_a_at) / RFU RGS16 (11720944_at) / Fold change /veh RGS16 (11720944_at) / RFU, VPS4B / Fold change vs veh, VPS4B / RFU, CREB1 / Fold change vs veh, CREB1 / RFU, DNAJC13 / Fold change vs veh, DNAJC13 / RFU, GNAQ / Fold change vs veh, GNAQ / RFU, CDK5R1 / Fold change vs veh, CDK5R1 / RFU, ZRANB3 / Fold change vs veh, ZRANB3 / RFU, CUL4A / Fold change vs veh, CUL4A / RFU, CCNY / Fold change vs veh, CCNY / RFU, UFL1 / Fold change vs veh, UFL1 / RFU, COG3 / Fold change vs veh, COG3 / RFU, DIAPH2 / Fold change vs veh, DIAPH2 / RFU, SKA2 / Fold change vs veh, SKA2 / RFU, AFF3 / Fold change vs veh, AFF3 / RFU, LMF1 / Fold change vs veh, LMF1 / RFU, IPO11 / Fold change vs veh, IPO11 / RFU, DFFB / Fold change vs veh, DFFB / RFU, FOXP1 / Fold change vs veh, FOXP1 / RFU, CARD8 / Fold change vs veh, CARD8 / RFU, STRN3 / Fold change vs veh, STRN3 / RFU, ADK / Fold change vs veh, ADK / RFU, RASSF2 / Fold change vs veh, RASSF2 / RFU, WIPF1 / Fold change vs veh, WIPF1 / RFU, LARP1B / Fold change vs veh, LARP1B / RFU, RASA1 / Fold change vs veh, RASA1 / RFU, RB1 / Fold change vs veh, RB1 / RFU, PPFIA1 / Fold change vs veh, PPFIA1 / RFU, MAT2A / Fold change vs veh, MAT2A / RFU, CCT5 / Fold change vs veh, CCT5 / RFU, WDR92 / Fold change vs veh, WDR92 / RFU, CUX1 / Fold change vs veh, CUX1 / RFU, TTC7A / Fold change vs veh, TTC7A / RFU, TMEM135 / Fold change vs veh, TMEM135 / RFU, DEPTOR / Fold change vs veh, DEPTOR / RFU, CPM / Fold change vs veh, CPM / RFU, DNAJB6 / Fold change vs veh, DNAJB6 / RFU, CACNA2D3 / Fold change vs veh, CACNA2D3 / RFU, DTX4 / Fold change vs veh, DTX4 / RFU, TFCP2 / Fold change vs veh, TFCP2 / RFU, GMCL1 /// GMCL1P1 / Fold change vs veh, GMCL1 /// GMCL1P1 / RFU, AEBP2 / Fold change vs veh, AEBP2 / RFU, SNHG1 /// SNORD22 /// SNORD25 /// SNORD26 /// SNORD27 /// SNORD28 /// SNORD29 /// SNORD31 / Fold change vs veh, SNHG1 /// SNORD22 /// SNORD25 /// SNORD26 /// SNORD27 /// SNORD28 /// SNORD29 /// SNORD31 / Fold change (Aza/veh), C12orf56 (ProbeSet 11735607_a_at) / Fold change (ACY-1035/veh), C12orf56 (ProbeSet 11735607_a_at) / Fold change (Aza/veh), FGFR1OP (ProbeSet 11751329_s_at) / Fold change (ACY-1035/veh), FGFR1OP (ProbeSet 11751329_s_at) / Fold change (Aza/veh), VPS36 (ProbeSet 11739960_a_at) / Fold change (ACY-1035/veh), VPS36 (ProbeSet 11739960_a_at) / RFU SYPL1 (11715823_x_at) / Fold change /veh SYPL1 (11715823_x_at) / RFU IGFBP7 (11715501_s_at) / Fold change /veh IGFBP7 (11715501_s_at) / RFU REEP3 (11722064_at) / Fold change /veh REEP3 (11722064_at) / RFU IGLL1 (11728026_x_at) / Fold change /veh IGLL1 (11728026_x_at): dose or concentration left out as unconfirmed
Conditions: MV-4-11 cells, 48 hours

Q: With Nc1ccc(-c2cccs2)cc1NC(=O)c1ccc2c(c1)cc(C1CC1)n2CCN1CCOCC1 [ACY-1035] as the compound, how does the “RFU DUSP10 (11751237_a_at)” value read?
A: 30.58 RFU
